Laboratory results as given in patent EP0559625B1, “Esters of L-carnitine and acyl L-carnitine endowed with muscle relaxant activityselective on gastrointestinal tract and pharmaceutical compositions containing same” (Sigma-Tau Industrie Farmaceutiche Riunite S.p.A., priority 1992, dated 1993).

Experiments:
[1] = molecular target: sites associated to calcium channels labeled by ^3H-Nitrendipine; experiment: Binding to Ca++ channel sites labelled by 3H-Nitrendipine in rat brain; settings: rat brain cortex membranes; ^3H-Nitrendipine 0.5 nM, 60' at 30°C; inactive at 10^-5 M not tested higher; read-out: IC50 Uptake sites of Ca^++ channels labelled with ^3H-Nitrendipine
Protocol: (§1) The "binding" of the tested compounds to the sites associated to calcium channels labeled by ^3H-Nitrendipine, ^3H-Verapamil and ^3H-Diltiazem has been assayed in rat brain according to the method of Schoemaker H. et al. Eur. J. Pharmacol. 111, 273 (1985) and of Reynolds I.J. et al. Eur. J. Pharmacol. 95, 319 (1983).
(§2) Brain cortices are removed from decollated male CrI: CD (SD) BR rats weighing 250-300 g.
(§3) The tissues were homogenized in Tris-HCl buffer and centrifuged at 50000 x g for 10 minutes. The pellet was washed twice through a fresh buffer suspension and centrifuged at 50000 x g for 10 minutes.
(§4) After suspension of the precipitate in the incubation buffer the compounds under examination were added to the medium, starting from a concentration 10^-5 M. Incubation conditions were: ^3H-Nitrendipine (0.5 nM) x 60' at 30°C; ^3H-Verapamil (10 µM) x 20' at 37°C; and ^3H-d-cis Diltiazem (4 nM) x 60' at 30°C. Final volume was 1 ml. Incubation was stopped by rapid filtration under vacuum through GF/B (0.1% […]) fiber filters which were washed with cold incubation buffer (3 x 3 ml) using the system of filtration Brandel Cell Harvester. Filters were put in 8 ml of Optifluor (Packard) and the radioactivity bound to the membranes trapped by fibers counted by liquid scintillation spectrometer TRI-CARB 1900 CA (Packard). The counting efficiency was about 50%.
(§5) The percentage inhibition of the specific ^3H-ligand binding to its respective receptors was calculated for each concentration (mean of three incubates).
(§6) The competition curve, the slope of the curve and IC50^± standard deviation values (drug concentration that reduces specific ^3H-ligand binding to its respective receptors by 50% of its maximum value) were calculated by using the "Allfit" program (De Lean A. et al., Am. J. Physiol. 235, E97, 1978) running on an IBM 55-SH.

[2] = molecular target: sites associated to calcium channels labeled by ^3H-Verapamil; experiment: Binding to Ca++ channel sites labelled by 3H-Verapamil in rat brain; settings: rat brain cortex membranes; ^3H-Verapamil (10 µM), 20' at 37°C; read-out: IC50 Uptake sites of Ca^++ channels labelled with ^3H-Verapamil
Protocol: as §1, §2, §3, §4, §5, §6

[3] = molecular target: sites associated to calcium channels labeled by ^3H-Diltiazem; experiment: Binding to Ca++ channel sites labelled by 3H-Diltiazem in rat brain; settings: rat brain cortex membranes; ^3H-d-cis Diltiazem 4 nM, 60' at 30°C; read-out: IC50 Uptake sites of Ca^++ channels labelled with ^3H-Diltiazem
Protocol: as §1, §2, §3, §4, §5, §6

[4] = system: mice; experiment: Assessment of behaviour and mortality in mice (Irwin's method); assay type: in vivo; settings: for Death rate: dead/treated, 4 animals/dose; for Symptoms: n.e. = no effect, (*) = in connection with death rate only
Protocol: The assessment of normal behaviour in mice was carried out following S. Irwin's method, Psychopharmacologia 13, 222 (1968). This method allows alterations in some behavioural, neurophysiologic and neurovegetative parameters to be detected, which are directly observable by the researcher. The study was conducted using male CrI: (CD-I)(ICR)BR mice (Charles River - Italy) weighing 22-25 g, following oral administration of the compounds suspended in carboxymethylcellulose (0.5% by weight in H2O) to groups of 4 animals/dose.
The animals were continuously kept under observation for five hours following treatment and twice a day in the subsequent five days. Mortality was also observed during the overall test period. The initial dose was 1000 mg/kg per os; lower doses were administered in case of death or if the initial dose brought about an excessive response.

[5] = system: Rat portal vein; experiment: Rat portal vein: contractions evoked by high K+ concentrations; settings: at a concentration of 10 mg/ml
Text: The effect of the compound on the contractions evoked by high K^+ concentrations in the rat portal vein has been tested according to Shetty S.S. et al., Europ. J. Pharm. 141, 485 (1989).

[6] = system: conscious spontaneously hypertensive rats (SHR); experiment: Effect on blood pressure and heart rate in conscious SHR; assay type: in vivo; settings: oral 100 mg/kg, 1, 2 and 4 hours after administration
Protocol: The effect of the substance has been tested after oral administration of 100 mg/kg to conscious spontaneously hypertensive rats (SHR). No changes of blood pressure and heart rate were observed 1, 2 and 4 hours after the administration. The experimental procedure was run according to Yeer T.T. et al, Life Sciences 22, 359 (1978).

## CCCCOC(=O)C[C@H](C[N+](C)(C)C)OC(=O)CC(C)C [ST 683]
[1]
  IC50: > 10000 nM
[2]
  IC50: 2400 nM
[3]
  IC50: 15000 nM
[4]; dose 300 (mg/kg per os)
  Death rate: 0/4
  Symptoms: n.e.
[4]; dose 600 (mg/kg per os)
  Death rate: 2/4
  Symptoms: convulsions (*)
[4]; dose 1000 (mg/kg per os)
  Death rate: 4/4
  Symptoms: convulsions (*)

## CC(C)COC(=O)C[C@H](C[N+](C)(C)C)OC(=O)C(C)C [ST 305]
[1]
  IC50: 33000 nM
[2]
  IC50: 3500 nM
[3]
  IC50: > 10000 nM
[4]; dose 1000 (mg/kg per os)
  Death rate: 0/4
  Symptoms: n.e.

## CCCCCCCOC(=O)C[C@H](C[N+](C)(C)C)OC(=O)CC(C)C [ST 697]
[1]
  IC50: > 10000 nM
[2]
  IC50: 1500 nM
[3]
  IC50: 500 nM
[4]; dose 100 (mg/kg per os)
  Death rate: 0/4
  Symptoms: n.e.
[4]; dose 300 (mg/kg per os)
  Death rate: 1/4
  Symptoms: convulsions (*)
[4]; dose 600 (mg/kg per os)
  Death rate: 2/4
  Symptoms: convulsions (*)
[4]; dose 1000 (mg/kg per os)
  Death rate: 4/4
  Symptoms: convulsions (*)

## CC(C)COC(=O)C[C@H](C[N+](C)(C)C)OC(=O)CC(C)C [ST 684]
[1]
  IC50: > 10000 nM
[2]
  IC50: 1600 nM
[3]
  IC50: 7800 nM
[4]; dose 1000 (mg/kg per os)
  Death rate: 0/4
  Symptoms: n.e.

## CCCCCCCCCCCOC(=O)C[C@H](C[N+](C)(C)C)OC(=O)CC(C)C [ST 722, isovaleryl L-carnitine undecyl ester chloride]
[1]
  IC50: 1600 nM
[2]
  IC50: 380 nM
[3]
  IC50: 1400 nM
[4]; dose 1000 (mg/kg per os)
  Death rate: 0/4
  Symptoms: salivation, diarrhea
[5]
  effect on the contractions evoked by high K^+ concentrations in the rat portal vein: inactive
[6]
  changes of blood pressure: No changes
  changes of heart rate: No changes

## CCCCCCCOC(=O)C[C@H](C[N+](C)(C)C)OC(=O)C(C)C [ST 713, isobutyryl L-carnitine heptyl ester chloride]
[1]
  IC50: > 10000 nM
[2]
  IC50: 1200 nM
[3]
  IC50: 1300 nM
[4]; dose 100 (mg/kg per os)
  Death rate: 0/4
  Symptoms: n.e.
[4]; dose 300 (mg/kg per os)
  Death rate: 2/4
  Symptoms: convulsions (*)
[4]; dose 600 (mg/kg per os)
  Death rate: 3/4
  Symptoms: convulsions (*)
[4]; dose 1000 (mg/kg per os)
  Death rate: 4/4
  Symptoms: convulsions (*)

## CCCCCCCCCCCOC(=O)C[C@H](C[N+](C)(C)C)OC(=O)C(C)C [ST 712, Isobutyryl L-carnitine undecyl ester chloride]
[1]
  IC50: 5300 nM
[2]
  IC50: 2800 nM
[3]
  IC50: 1200 nM
[4]; dose 1000 (mg/kg per os)
  Death rate: 0/4
  Symptoms: n.e.

## CCCCCCCOC(=O)C[C@H](C[N+](C)(C)C)OC(C)=O [ST 904, acetyl L-carnitine heptyl ester chloride]
[1]
  IC50: > 10000 nM
[2]
  IC50: 3200 nM
[3]
  IC50: > 10000 nM
[4]; dose 300 (mg/kg per os)
  Death rate: 0/4
  Symptoms: n.e.
[4]; dose 600 (mg/kg per os)
  Death rate: 2/4
  Symptoms: convulsions (*)
[4]; dose 1000 (mg/kg per os)
  Death rate: 4/4
  Symptoms: convulsions (*)
